Entries after “also recorded” stand apart in the source; their conditions may differ.
Tests used:
Type in all cases: biochemical
HDAC10 = molecular target: T1, HDAC10 (Homo sapiens, UniProt Q969S8); assay: HDAC10 profiling of SHA anchor
T1 sequence (Q969S8 1-669): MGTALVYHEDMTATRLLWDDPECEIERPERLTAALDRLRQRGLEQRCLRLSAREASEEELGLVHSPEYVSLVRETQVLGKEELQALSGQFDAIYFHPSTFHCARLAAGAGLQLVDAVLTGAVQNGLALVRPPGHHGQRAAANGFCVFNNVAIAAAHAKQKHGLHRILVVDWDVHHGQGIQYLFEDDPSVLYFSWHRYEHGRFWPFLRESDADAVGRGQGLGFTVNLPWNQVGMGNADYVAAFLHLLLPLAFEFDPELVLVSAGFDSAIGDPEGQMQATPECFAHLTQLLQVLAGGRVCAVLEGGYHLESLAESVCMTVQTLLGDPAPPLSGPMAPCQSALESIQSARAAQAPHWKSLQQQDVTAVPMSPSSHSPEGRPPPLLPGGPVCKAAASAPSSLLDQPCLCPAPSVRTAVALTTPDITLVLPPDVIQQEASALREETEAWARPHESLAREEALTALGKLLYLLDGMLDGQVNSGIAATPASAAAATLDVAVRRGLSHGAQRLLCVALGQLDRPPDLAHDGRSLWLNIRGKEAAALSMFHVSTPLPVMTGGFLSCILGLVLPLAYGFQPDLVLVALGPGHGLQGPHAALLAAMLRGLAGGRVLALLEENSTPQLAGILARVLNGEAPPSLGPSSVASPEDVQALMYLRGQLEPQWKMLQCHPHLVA
From the text: Supplement 41467_2021_23609_MOESM7_ESM.zip/HDACActivity_RawData.xlsx, sheet "SHA" | column: HDAC10

HDAC7 = molecular target: T2, HDAC7 (Homo sapiens, UniProt Q8WUI4); assay: HDAC7 profiling of SHA anchor and early peptides
T2 sequence (Q8WUI4 1-952): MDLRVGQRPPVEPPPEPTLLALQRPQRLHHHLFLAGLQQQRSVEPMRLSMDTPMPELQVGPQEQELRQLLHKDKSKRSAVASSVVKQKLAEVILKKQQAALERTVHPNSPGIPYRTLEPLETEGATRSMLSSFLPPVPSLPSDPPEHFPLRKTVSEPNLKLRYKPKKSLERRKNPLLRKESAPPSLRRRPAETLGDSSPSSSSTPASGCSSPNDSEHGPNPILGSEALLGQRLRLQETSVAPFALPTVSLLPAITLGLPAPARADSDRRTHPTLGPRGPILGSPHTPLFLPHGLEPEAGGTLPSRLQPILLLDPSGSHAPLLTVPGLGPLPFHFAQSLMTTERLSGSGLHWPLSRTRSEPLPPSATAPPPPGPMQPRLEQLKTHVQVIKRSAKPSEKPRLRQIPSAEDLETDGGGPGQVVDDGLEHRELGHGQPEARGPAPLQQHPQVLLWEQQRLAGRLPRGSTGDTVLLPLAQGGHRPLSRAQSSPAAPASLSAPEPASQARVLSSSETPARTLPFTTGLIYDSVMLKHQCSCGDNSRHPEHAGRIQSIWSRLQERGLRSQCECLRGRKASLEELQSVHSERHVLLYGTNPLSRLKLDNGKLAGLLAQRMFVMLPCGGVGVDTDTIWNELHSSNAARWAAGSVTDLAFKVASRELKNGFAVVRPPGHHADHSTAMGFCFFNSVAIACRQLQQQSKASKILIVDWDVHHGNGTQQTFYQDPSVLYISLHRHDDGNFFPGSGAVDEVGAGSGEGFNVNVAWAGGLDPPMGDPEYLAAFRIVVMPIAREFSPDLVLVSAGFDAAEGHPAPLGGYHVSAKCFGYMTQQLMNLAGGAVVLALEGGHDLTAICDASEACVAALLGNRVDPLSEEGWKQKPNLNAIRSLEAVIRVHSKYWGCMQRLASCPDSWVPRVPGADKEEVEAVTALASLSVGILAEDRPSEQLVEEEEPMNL

HDAC11 = molecular target: T3, HDAC11 (Homo sapiens, UniProt Q96DB2); assay: HDAC11 profiling of SHA anchor
T3 sequence (Q96DB2 1-347): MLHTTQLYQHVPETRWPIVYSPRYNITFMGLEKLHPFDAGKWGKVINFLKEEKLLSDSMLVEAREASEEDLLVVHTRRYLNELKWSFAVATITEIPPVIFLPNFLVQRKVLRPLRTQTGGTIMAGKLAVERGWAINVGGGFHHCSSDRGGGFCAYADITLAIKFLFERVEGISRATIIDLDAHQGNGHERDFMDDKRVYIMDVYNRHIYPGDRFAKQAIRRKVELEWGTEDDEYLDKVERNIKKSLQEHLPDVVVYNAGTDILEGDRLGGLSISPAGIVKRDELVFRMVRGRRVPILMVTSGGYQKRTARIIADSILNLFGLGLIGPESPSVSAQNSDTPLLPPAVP

HDAC5 = HDAC5 (Homo sapiens, UniProt Q9UQL6); assay: HDAC5 profiling of SHA anchor and early peptides
Chain of HDAC5 (Q9UQL6 whole entry): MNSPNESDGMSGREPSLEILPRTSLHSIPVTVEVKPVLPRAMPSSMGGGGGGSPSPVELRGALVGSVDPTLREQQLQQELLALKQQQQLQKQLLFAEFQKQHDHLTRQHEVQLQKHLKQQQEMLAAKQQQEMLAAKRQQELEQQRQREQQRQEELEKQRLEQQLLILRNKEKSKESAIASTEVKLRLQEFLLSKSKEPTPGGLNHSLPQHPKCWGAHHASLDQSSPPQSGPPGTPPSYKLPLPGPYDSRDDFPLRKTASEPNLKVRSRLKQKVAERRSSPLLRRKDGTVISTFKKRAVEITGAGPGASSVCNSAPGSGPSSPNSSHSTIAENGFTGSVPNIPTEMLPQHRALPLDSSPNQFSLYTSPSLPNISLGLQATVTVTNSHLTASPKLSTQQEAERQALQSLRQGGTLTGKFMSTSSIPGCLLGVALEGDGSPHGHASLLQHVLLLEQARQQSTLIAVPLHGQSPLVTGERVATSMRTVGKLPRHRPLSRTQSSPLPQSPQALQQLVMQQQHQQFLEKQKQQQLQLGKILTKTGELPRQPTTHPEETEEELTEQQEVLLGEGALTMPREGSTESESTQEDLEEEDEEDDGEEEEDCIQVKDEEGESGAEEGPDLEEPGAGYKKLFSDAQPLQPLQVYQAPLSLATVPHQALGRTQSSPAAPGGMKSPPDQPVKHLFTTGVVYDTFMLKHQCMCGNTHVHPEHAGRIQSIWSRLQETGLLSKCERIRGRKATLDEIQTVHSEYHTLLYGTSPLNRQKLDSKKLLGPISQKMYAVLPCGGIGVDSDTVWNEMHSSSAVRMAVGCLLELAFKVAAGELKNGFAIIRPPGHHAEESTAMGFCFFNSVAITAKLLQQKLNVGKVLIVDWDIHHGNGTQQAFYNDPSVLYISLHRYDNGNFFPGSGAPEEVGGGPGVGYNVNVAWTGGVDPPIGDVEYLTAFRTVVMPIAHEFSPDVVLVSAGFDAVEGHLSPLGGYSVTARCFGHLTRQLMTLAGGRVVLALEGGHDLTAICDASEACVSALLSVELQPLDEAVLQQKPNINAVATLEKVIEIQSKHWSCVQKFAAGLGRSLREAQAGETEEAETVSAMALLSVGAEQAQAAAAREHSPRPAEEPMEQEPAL

SMILES: N[C@@H](CCCCCS)C(=O)O [SHA, 2S-2-amino-7-sulfanylheptanoic acid]
- HDAC10 raw activity signal (HDAC10; Conc. 1.00E-05 M): 78535
- HDAC10 raw activity signal (HDAC10; Conc. 1.11E-06 M): 200617
- HDAC10 raw activity signal (HDAC10; Conc. 1.23E-07 M): 227566
- HDAC10 raw activity signal (HDAC10; Conc. 1.37E-08 M): 231393
- HDAC10 raw activity signal (HDAC10; Conc. 1.52E-09 M): 230961
- HDAC10 raw activity signal (HDAC10; Conc. 3.33E-06 M): 158362
- HDAC10 raw activity signal (HDAC10; Conc. 3.70E-07 M): 217828
- HDAC10 raw activity signal (HDAC10; Conc. 4.12E-08 M): 237632
- HDAC10 raw activity signal (HDAC10; Conc. 4.57E-09 M): 278288
- HDAC10 raw activity signal (HDAC10; Conc. 5.08E-10 M): 236379
- binding to HDAC7 (HDAC7): not detected binding; also recorded: no binding
- HDAC7 raw activity signal (HDAC7; Conc. 1.00E-05 M): 490633
- HDAC7 raw activity signal (HDAC7; Conc. 1.11E-06 M): 609377
- HDAC7 raw activity signal (HDAC7; Conc. 1.23E-07 M): 577915
- HDAC7 raw activity signal (HDAC7; Conc. 1.37E-08 M): 439997
- HDAC7 raw activity signal (HDAC7; Conc. 1.52E-09 M): 431089
- HDAC7 raw activity signal (HDAC7; Conc. 3.33E-06 M): 551905
- HDAC7 raw activity signal (HDAC7; Conc. 3.70E-07 M): 580293
- HDAC7 raw activity signal (HDAC7; Conc. 4.12E-08 M): 536345
- HDAC7 raw activity signal (HDAC7; Conc. 4.57E-09 M): 413084
- HDAC7 raw activity signal (HDAC7; Conc. 5.08E-10 M): 366480
- binding to HDAC11 (HDAC11): no binding
- HDAC11 raw activity signal (HDAC11; Conc. 1.00E-05 M): 857709
- HDAC11 raw activity signal (HDAC11; Conc. 1.11E-06 M): 1073570
- HDAC11 raw activity signal (HDAC11; Conc. 1.23E-07 M): 1094662
- HDAC11 raw activity signal (HDAC11; Conc. 1.37E-08 M): 1209318
- HDAC11 raw activity signal (HDAC11; Conc. 1.52E-09 M): 1051037
- HDAC11 raw activity signal (HDAC11; Conc. 3.33E-06 M): 847001
- HDAC11 raw activity signal (HDAC11; Conc. 3.70E-07 M): 1077158
- HDAC11 raw activity signal (HDAC11; Conc. 4.12E-08 M): 1064044
- HDAC11 raw activity signal (HDAC11; Conc. 4.57E-09 M): 1134026
- HDAC11 raw activity signal (HDAC11; Conc. 5.08E-10 M): 1061165
- binding to HDAC5 (HDAC5): not detected binding; also recorded: no binding
- HDAC5 raw activity signal (HDAC5; Conc. 1.00E-05 M): 673421
- HDAC5 raw activity signal (HDAC5; Conc. 1.11E-06 M): 815210
- HDAC5 raw activity signal (HDAC5; Conc. 1.23E-07 M): 790981
- HDAC5 raw activity signal (HDAC5; Conc. 1.37E-08 M): 671078
- HDAC5 raw activity signal (HDAC5; Conc. 1.52E-09 M): 600695
- HDAC5 raw activity signal (HDAC5; Conc. 3.33E-06 M): 650638
- HDAC5 raw activity signal (HDAC5; Conc. 3.70E-07 M): 757112
- HDAC5 raw activity signal (HDAC5; Conc. 4.12E-08 M): 716396
- HDAC5 raw activity signal (HDAC5; Conc. 4.57E-09 M): 610467
- HDAC5 raw activity signal (HDAC5; Conc. 5.08E-10 M): 252249

From article PMC8185074, “Anchor extension: a structure-guided approach to design cyclic peptides targeting enzyme active sites” (Nature Communications, 2021)
